Experiment: xn = mol fraction of the nth substance listed
Details: 318.15 K, 101 kPa

Cc1ncc(C[n+]2csc(CCO)c2C)c(N)n1.Cl.[Cl-] + CCCCCCCCCCCCOS(=O)(=O)[O-].[Na+] + O
Details	electrical conductivity [S/m]
x2 = 0, x1 = 1.8e-07	0.00286
x2 = 0, x1 = 9e-07	0.00608
x2 = 0, x1 = 1.8e-06	0.00964
x2 = 7.35e-06, x1 = 1.8e-07	0.00698
x2 = 7.35e-06, x1 = 9e-07	0.0104
x2 = 7.35e-06, x1 = 1.8e-06	0.0147
x2 = 1.463e-05, x1 = 1.8e-07	0.0112
x2 = 1.463e-05, x1 = 9e-07	0.0145
x2 = 1.463e-05, x1 = 1.8e-06	0.0195
x2 = 2.18e-05, x1 = 1.8e-07	0.0153
x2 = 2.18e-05, x1 = 9e-07	0.0186
x2 = 2.18e-05, x1 = 1.8e-06	0.0241
x2 = 2.901e-05, x1 = 1.8e-07	0.0195
x2 = 2.901e-05, x1 = 9e-07	0.0226
x2 = 2.901e-05, x1 = 1.8e-06	0.0286
x2 = 3.604e-05, x1 = 1.8e-07	0.0235
x2 = 3.604e-05, x1 = 9e-07	0.0266
x2 = 3.604e-05, x1 = 1.8e-06	0.033
x2 = 4.307e-05, x1 = 1.8e-07	0.0276
x2 = 4.307e-05, x1 = 9e-07	0.0306
x2 = 4.307e-05, x1 = 1.8e-06	0.0375
x2 = 4.991e-05, x1 = 1.8e-07	0.0315
x2 = 4.991e-05, x1 = 9e-07	0.0346
x2 = 4.991e-05, x1 = 1.8e-06	0.0417
x2 = 5.676e-05, x1 = 1.8e-07	0.0355
x2 = 5.676e-05, x1 = 9e-07	0.0386
x2 = 5.676e-05, x1 = 1.8e-06	0.0458
x2 = 6.361e-05, x1 = 1.8e-07	0.0393
x2 = 6.361e-05, x1 = 9e-07	0.0425
x2 = 6.361e-05, x1 = 1.8e-06	0.0498
x2 = 7.027e-05, x1 = 1.8e-07	0.043
x2 = 7.027e-05, x1 = 9e-07	0.0464
x2 = 7.028e-05, x1 = 1.8e-06	0.0537
x2 = 7.694e-05, x1 = 1.8e-07	0.0467
x2 = 7.694e-05, x1 = 9e-07	0.0503
x2 = 7.694e-05, x1 = 1.8e-06	0.0576
x2 = 8.361e-05, x1 = 1.8e-07	0.0503
x2 = 8.361e-05, x1 = 9e-07	0.0542
x2 = 8.361e-05, x1 = 1.8e-06	0.0614
x2 = 9.009e-05, x1 = 1.8e-07	0.0539
x2 = 9.009e-05, x1 = 9e-07	0.058
x2 = 9.009e-05, x1 = 1.8e-06	0.0651
x2 = 9.658e-05, x1 = 1.8e-07	0.0576
x2 = 9.658e-05, x1 = 9e-07	0.0618
x2 = 9.658e-05, x1 = 1.8e-06	0.0686
x2 = 0.0001031, x1 = 1.8e-07	0.0611
x2 = 0.0001031, x1 = 9e-07	0.0653
x2 = 0.0001031, x1 = 1.8e-06	0.0721
x2 = 0.0001094, x1 = 1.8e-07	0.0643
x2 = 0.0001094, x1 = 9e-07	0.0687
x2 = 0.0001094, x1 = 1.8e-06	0.0754
x2 = 0.0001157, x1 = 1.8e-07	0.0676
x2 = 0.0001157, x1 = 9e-07	0.0719
x2 = 0.0001157, x1 = 1.8e-06	0.0784
x2 = 0.000122, x1 = 1.8e-07	0.0707
x2 = 0.000122, x1 = 9e-07	0.075
x2 = 0.000122, x1 = 1.8e-06	0.0813
x2 = 0.0001281, x1 = 1.8e-07	0.0736
x2 = 0.0001281, x1 = 9e-07	0.0777
x2 = 0.0001281, x1 = 1.8e-06	0.0841
x2 = 0.0001342, x1 = 1.8e-07	0.0764
x2 = 0.0001342, x1 = 9e-07	0.0802
x2 = 0.0001342, x1 = 1.8e-06	0.0868
x2 = 0.0001404, x1 = 1.8e-07	0.079
x2 = 0.0001404, x1 = 9e-07	0.0822
x2 = 0.0001404, x1 = 1.8e-06	0.0894
x2 = 0.0001465, x1 = 1.8e-07	0.0816
x2 = 0.0001465, x1 = 9e-07	0.0841
x2 = 0.0001465, x1 = 1.8e-06	0.0919
x2 = 0.0001524, x1 = 1.8e-07	0.0838
x2 = 0.0001524, x1 = 9e-07	0.086
x2 = 0.0001524, x1 = 1.8e-06	0.0943
x2 = 0.0001584, x1 = 1.8e-07	0.0858
x2 = 0.0001584, x1 = 9e-07	0.0878
x2 = 0.0001584, x1 = 1.8e-06	0.0962
x2 = 0.0001641, x1 = 1.8e-07	0.0876
x2 = 0.0001641, x1 = 9e-07	0.0895
x2 = 0.0001641, x1 = 1.8e-06	0.0981
x2 = 0.0001699, x1 = 1.8e-07	0.0893
x2 = 0.0001699, x1 = 9e-07	0.0911
x2 = 0.0001699, x1 = 1.8e-06	0.1
x2 = 0.0001757, x1 = 1.8e-07	0.0909
x2 = 0.0001757, x1 = 9e-07	0.0927
x2 = 0.0001757, x1 = 1.8e-06	0.102
x2 = 0.0001814, x1 = 1.8e-07	0.0924
x2 = 0.0001814, x1 = 9e-07	0.0943
x2 = 0.0001814, x1 = 1.8e-06	0.104
x2 = 0.000187, x1 = 1.8e-07	0.0939
x2 = 0.000187, x1 = 9e-07	0.0957
x2 = 0.000187, x1 = 1.8e-06	0.106
x2 = 0.0001928, x1 = 1.8e-07	0.0952
x2 = 0.0001928, x1 = 9e-07	0.0974
x2 = 0.0001928, x1 = 1.8e-06	0.107
x2 = 0.0001982, x1 = 1.8e-07	0.0966
x2 = 0.0001982, x1 = 9e-07	0.0991
x2 = 0.0001982, x1 = 1.8e-06	0.109
x2 = 0.0002038, x1 = 1.8e-07	0.0979
x2 = 0.0002038, x1 = 9e-07	0.101
x2 = 0.0002038, x1 = 1.8e-06	0.111
x2 = 0.0002092, x1 = 1.8e-07	0.0992
x2 = 0.0002092, x1 = 9e-07	0.102
x2 = 0.0002092, x1 = 1.8e-06	0.112
x2 = 0.0002147, x1 = 1.8e-07	0.1
x2 = 0.0002148, x1 = 9e-07	0.104
x2 = 0.0002148, x1 = 1.8e-06	0.114
x2 = 0.00022, x1 = 1.8e-07	0.102
x2 = 0.00022, x1 = 9e-07	0.105
x2 = 0.00022, x1 = 1.8e-06	0.115
x2 = 0.0002254, x1 = 1.8e-07	0.103
x2 = 0.0002254, x1 = 9e-07	0.107
x2 = 0.0002254, x1 = 1.8e-06	0.116
x2 = 0.0002306, x1 = 1.8e-07	0.104
x2 = 0.0002306, x1 = 9e-07	0.108
x2 = 0.0002306, x1 = 1.8e-06	0.117
x2 = 0.0002358, x1 = 1.8e-07	0.105
x2 = 0.0002358, x1 = 9e-07	0.109
x2 = 0.0002358, x1 = 1.8e-06	0.119
x2 = 0.0002411, x1 = 1.8e-07	0.106
x2 = 0.0002411, x1 = 9e-07	0.111
x2 = 0.0002411, x1 = 1.8e-06	0.12
